The source of these data is the COVID Moonshot data (paper PMC11187573), “Identification of SARS-CoV-2 Mpro inhibitors through deep reinforcement learning for de novo drug design and computational chemistry approaches” (RSC Medicinal Chemistry, 2024).

Each structure is given as a SMILES string.

Usually inhibition stands for the relative decrease from the control value, in per cent. Broadly, the IC50 is the concentration at which inhibition is half-maximal.

Series [1] concerns the target SARS-CoV-2 Main Protease (SARS-CoV-2) (UniProt P0DTD1).
Protocol: Compounds were seeded into assay-ready plates (Greiner 384 low volume, cat 784900) using an Echo 555 acoustic dispenser, and DMSO was back-filled for a uniform concentration in assay plates (DMSO concentration maximum 1%) Screening assays were performed in duplicate at 20µM and 50µM. […] Dose response assays were performed in 12 point dilutions of 2-fold, typically beginning at 100µM. […] Reagents for Mpro assay were dispensed into the assay plate in 10µl volumes for a final volume of 20µL.
Mpro was pre-incubated for 15 minutes at room temperature with compound before addition of substrate and a further 30 minute incubation. Protease reaction was measured in a BMG Pherastar FS with a 480/520 ex/em filter set. Raw data was mapped and normalized to high (Protease with DMSO) and low (No Protease) controls using Genedata Screener software.
Series [2] shares this target. This is another data set of the same source.

Molecule `O=C(Cn1nnc2ccccc21)N(Cc1ccsc1)c1ccc(-c2ccccc2)cc1` registered a relative solubility at 20 uM of 0.64 and a relative solubility at 100 uM of 0.5. For the same molecule, in series [1] (20.0 µM), the inhibition was determined as 30.4%. The inhibition in series [1] (50.0 µM) was found to be 39.1%. In series [2] (50.0 µM), the inhibition was 36.1%.

Molecule `C=CC(=O)N(c1ccc(C(C)C)nc1)C(C(=O)NC(C)(C)C)c1cccnc1` (stereo unspecified) gave a relative solubility at 20 uM of 1 and a relative solubility at 100 uM of 0.99. In series [1] (20.0 µM), the inhibition was 11.7%. Moreover, the inhibition in series [1] (50.0 µM) is 11.4%. Besides, in series [2] (20.0 µM), the inhibition worked out at 0%.

`C=CC(=O)N(c1ccc(C2(C)CC2)cc1)C(C(=O)Nc1cccc(F)c1C)c1cccnc1` (stereo unspecified) yielded a relative solubility at 20 uM of 1 and a relative solubility at 100 uM of 1. In series [1] (50.0 µM), the inhibition turned out to be 34.7%. Moreover, the inhibition in series [2] (20.0 µM) was found to be 0%. Further, the inhibition in series [2] (50.0 µM) was found to be 1.04%.

For the molecule `NS(=O)(=O)CCc1ccccc1CN1CCN(C(=O)CCl)CC1`, the relative solubility at 20 uM was determined as 1 and the relative solubility at 100 uM was 1. In addition, the inhibition in series [1] (20.0 µM) was 101%. Also, in series [1] (50.0 µM), the inhibition is 103%. Also, in series [2], the 50% inhibitory concentration (IC50) was found to be 0.834 µM. The inhibition in series [2] (50.0 µM) is 100%.

`O=C(Cc1cccnc1)Nc1cccc(OC2CC(=O)N2)c1` (stereo unspecified) returned a relative solubility at 20 uM of 0.97 and a relative solubility at 100 uM of 0.99. For the same molecule, in series [1] (20.0 µM), the inhibition amounted to 39.6%. Besides, in series [1] (50.0 µM), the inhibition was found to be 71.8%. Moreover, the inhibition in series [2] (50.0 µM) was 26.4%.

Regarding `N#Cc1ccc(CNC(=O)Cc2c[nH]c3ncccc23)nc1`, the relative solubility at 20 uM came out at 1 and the relative solubility at 100 uM amounted to 1. Also, the inhibition in series [1] (20.0 µM) was 4.15%. Further, the inhibition in series [1] (50.0 µM) amounted to 0.616%. For the same molecule, in series [2] (20.0 µM), the inhibition came out at 0%.

Consider `Sc1nc2ccccc2c2nc(CCc3ccccc3)nn12`, for which the relative solubility at 20 uM stood at 0.93 and the relative solubility at 100 uM came to 0.89. In series [1] (20.0 µM), the inhibition is -0.837%. Further, the inhibition in series [1] (50.0 µM) was -6.97%. For the same molecule, the inhibition in series [2] (50.0 µM) stood at 0%.

`Cc1nnc(C2Cc3ccccc3CN2C(=O)CCl)o1` (stereo unspecified) displayed a relative solubility at 20 uM of 0.99 and a relative solubility at 100 uM of 0.99. Besides, in series [1] (20.0 µM), the inhibition was 16.3%. For the same molecule, the inhibition in series [1] (50.0 µM) came to 41.9%. Besides, in series [2] (50.0 µM), the inhibition came out at 18.1%.

Molecule `O=C1NC(c2cccnc2)C(=O)N1c1cccc(Cl)c1` (stereo unspecified) had a relative solubility at 20 uM of 0.85 and a relative solubility at 100 uM of 0.91. In addition, the inhibition in series [1] (20.0 µM) amounted to 18.1%. The inhibition in series [1] (50.0 µM) is 33.9%. The IC50 in series [2] is 57.8 µM. The inhibition in series [2] (50.0 µM) is 69.6%.

The molecule `C=CC(=O)N(c1ccc(C(C)(C)C)cc1)C(C(=O)NC1CCOCC1)c1cccnc1` (stereo unspecified) returned a relative solubility at 20 uM of 0.99 and a relative solubility at 100 uM of 1. Moreover, the inhibition in series [1] (20.0 µM) was 9.01%. The inhibition in series [1] (50.0 µM) is 0.668%. Further, the inhibition in series [2] (20.0 µM) is 0.841%. For the same molecule, the inhibition in series [2] (50.0 µM) was 31.1%.

Consider `Cc1nc(-c2cccc(CNC(=O)Nc3cccc(CN4CCCC4=O)c3)c2)n[nH]1`, for which the relative solubility at 20 uM came out at 0.98 and the relative solubility at 100 uM was 0.98. The inhibition in series [1] (20.0 µM) came out at 2.12%. Besides, the inhibition in series [1] (50.0 µM) was determined as 2.95%. For the same molecule, the inhibition in series [2] (50.0 µM) stood at 0%.

On to `O=C(Cc1cccc(Cl)c1)Nc1cnccc1O`, for which the relative solubility at 20 uM is 1 and the relative solubility at 100 uM amounted to 1. Also, the inhibition in series [1] (20.0 µM) was 0.0135%. Further, the inhibition in series [1] (50.0 µM) is -2.06%. For the same molecule, the inhibition in series [2] (50.0 µM) turned out to be 0%.

`O=C(c1cc(=O)[nH]c2ccc(F)cc12)N1CCN(S(=O)(=O)c2cccc(Cl)c2)CC1`: the relative solubility at 20 uM came out at 0.98 and the relative solubility at 100 uM is 0.87. Moreover, the inhibition in series [1] (20.0 µM) was found to be 1.39%. For the same molecule, in series [1] (50.0 µM), the inhibition was 25.7%. Besides, the inhibition in series [2] (50.0 µM) came to 52.8%.

In turn, `CNC(=O)OC1CCN(S(=O)(=O)c2ccccc2)CC1` had a relative solubility at 20 uM of 1 and a relative solubility at 100 uM of 1. In addition, in series [1] (50.0 µM), the inhibition was -16.3%. Moreover, the inhibition in series [2] (20.0 µM) came out at 4.89%. Besides, the inhibition in series [2] (50.0 µM) came out at 0%.

On to `O=C(Cc1c[nH]c2ncccc12)N(Cc1c(F)cccc1Cl)c1ccc2[nH]c(=O)[nH]c2c1`, for which the relative solubility at 20 uM amounted to 0.95 and the relative solubility at 100 uM is 0.88. The inhibition in series [1] (20.0 µM) stood at 6.29%. Besides, the inhibition in series [1] (50.0 µM) was -1.08%. The inhibition in series [2] (50.0 µM) was determined as 12.4%.

`CN(C)C/C=C/C(=O)NCc1c[nH]c2ccccc12` registered a relative solubility at 20 uM of 0.96 and a relative solubility at 100 uM of 0.98. Further, the inhibition in series [1] (20.0 µM) was determined as 3.86%. For the same molecule, in series [1] (50.0 µM), the inhibition was 0.744%. For the same molecule, the inhibition in series [2] (20.0 µM) amounted to 0%.

In turn, `CC(=O)N1CCN(Cc2cn(-c3cccc(S(N)(=O)=O)c3)nn2)CC1` yielded a relative solubility at 20 uM of 0.95 and a relative solubility at 100 uM of 0.97. In addition, in series [1] (20.0 µM), the inhibition was -2.75%. The inhibition in series [1] (50.0 µM) came out at 1.36%. In series [2] (20.0 µM), the inhibition was determined as 2.3%. Also, the inhibition in series [2] (50.0 µM) is 5.73%.

`Cc1ccncc1CC(=O)Nc1cccc(Cl)c1` displayed a relative solubility at 20 uM of 1 and a relative solubility at 100 uM of 1. In addition, in series [1] (20.0 µM), the inhibition was 42.2%. Besides, the inhibition in series [1] (50.0 µM) is 67.4%. In series [2], this molecule had an IC50 of 26.4 µM. Further, in series [2] (50.0 µM), the inhibition stood at 88.6%.

Consider `O=C1C(=O)N(Cc2ccc(Br)cc2)c2c(Br)cccc21`, for which the relative solubility at 20 uM was found to be 0.99 and the relative solubility at 100 uM is 0.97. Further, the inhibition in series [1] (20.0 µM) worked out at 1.5%. Moreover, in series [1] (50.0 µM), the inhibition is -1.15%. Moreover, the IC50 in series [2] amounted to 0.485 µM. Also, the inhibition in series [2] (50.0 µM) was 100%.
